Several values for one entry are separate records, joined by “and”; a condition that tells them apart may be missing. Equal values may be shown once. Inconclusive results and toxic doses are left out. Rule as the data show it: active = T/C of 150% or more; inactive = T/C below 125%.
System: L1210 leukemia ip in BDF1 mice, survival T/C
Assay: NCI In Vivo Anticancer Drug Screen. Data for tumor model L1210 Leukemia (intraperitoneal) in B6D2F1 (BDF1) mice
Conditions: endpoint: mean survival time, higher = longer survival
In short: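 Ratio derived from survival: compound-dosed mice over vehicle-dosed mice, all bearing a transplantable tumor.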

[1] = dose: 100.0 mg/kg/injection, schedule: Q01DX001 (ip), vehicle: saline
[2] = dose: 200.0 mg/kg/injection, schedule: Q01DX001 (ip), vehicle: saline
[3] = dose: 400.0 mg/kg/injection, schedule: Q01DX001 (ip), vehicle: saline
[4] = dose: 100.0 mg/kg/injection, schedule: Q01DX001 (ip), vehicle: saline with Tween-80
[5] = dose: 200.0 mg/kg/injection, schedule: Q01DX001 (ip), vehicle: saline with Tween-80
[6] = dose: 400.0 mg/kg/injection, schedule: Q01DX001 (ip), vehicle: saline with Tween-80
[7] = dose: 100.0 mg/kg/injection, schedule: Q04DX003 (ip), vehicle: saline with Tween-80
[8] = dose: 200.0 mg/kg/injection, schedule: Q04DX003 (ip), vehicle: saline with Tween-80
[9] = dose: 400.0 mg/kg/injection, schedule: Q04DX003 (ip), vehicle: saline with Tween-80

Measured: T/C

CC(C)=NC(=O)NO.[Cl][Zn][Cl]
inactive: dose: 15.0 mg/kg/injection, schedule: Q01DX001 (ip), vehicle: carboxymethylcellulose (CMC) 95 % of control | dose: 30.0 mg/kg/injection, schedule: Q01DX001 (ip), vehicle: carboxymethylcellulose (CMC) 89 % of control | dose: 60.0 mg/kg/injection, schedule: Q01DX001 (ip), vehicle: carboxymethylcellulose (CMC) 100 % of control

O=C1NC2(CCC(O)CC2)C(O)(c2ccccc2)C12CCCCC2 (stereo unspecified)
inactive: dose: 75.0 mg/kg/injection, schedule: Q01DX001 (ip), vehicle: saline 105 % of control | dose: 150.0 mg/kg/injection, schedule: Q01DX001 (ip), vehicle: saline 86 % of control | dose: 300.0 mg/kg/injection, schedule: Q01DX001 (ip), vehicle: saline 86 % of control

Cc1c(C)c2cccc(C)c2[nH]c1=O
inactive: [1] 95 % of control | [2] 95 % of control | [3] 103 % of control

COc1cc(Cc2c(C=O)[nH]c(=S)[nH]c2=O)cc(OC)c1OC
inactive: [4] 90 % of control | [5] 89 % of control | [6] 96 % of control

CCOC(=O)C1=NN(c2ccccc2)C(=O)C1N=Nc1ccc(S(=O)(=O)Nc2onc(C)c2C)cc1 (stereo unspecified)
inactive: [1] 104 % of control | [2] 98 % of control | [3] 107 % of control

FC(F)(F)C(F)(F)c1nc2nc(Cl)c(Cl)nc2[nH]1
inactive: dose: 50.0 mg/kg/injection, schedule: Q01DX009 (ip), vehicle: other 106 % of control | dose: 100.0 mg/kg/injection, schedule: Q01DX009 (ip), vehicle: other 92 % of control | dose: 100.0 mg/kg/injection, schedule: Q04DX003 (ip), vehicle: other 120 % of control | dose: 132.0 mg/kg/injection, schedule: Q04DX003 (ip), vehicle: other 94 % of control | dose: 200.0 mg/kg/injection, schedule: Q04DX003 (ip), vehicle: other 114 % of control

COc1ccc(/C=N\NC(=O)OC(C)(C)C)c(OC)c1OC
inactive: dose: 100.0 mg/kg/injection, schedule: Q01DX009 (ip), vehicle: acetone 104 % of control | [7] 105 % of control | dose: 200.0 mg/kg/injection, schedule: Q01DX009 (ip), vehicle: acetone 94 % of control | [8] 112 % of control | dose: 400.0 mg/kg/injection, schedule: Q01DX009 (ip), vehicle: acetone 96 % of control | [9] 112 % of control

COc1ccc(C(=O)N(N)C2CCCCC2)cc1
inactive: [7] 93 % of control | [8] 102 % of control

Cc1cccc(NC(=O)NC2CCC(CC3CCCCC3)CC2)c1 (stereo unspecified)
inactive: dose: 100.0 mg/kg/injection, schedule: Q01DX009 (ip), vehicle: Klucel (hydroxypropylcellulose) (HPC) 106 % of control | dose: 100.0 mg/kg/injection, schedule: Q04DX003 (ip), vehicle: Klucel (hydroxypropylcellulose) (HPC) 97 % of control | dose: 200.0 mg/kg/injection, schedule: Q01DX009 (ip), vehicle: Klucel (hydroxypropylcellulose) (HPC) 97 % of control | dose: 200.0 mg/kg/injection, schedule: Q04DX003 (ip), vehicle: Klucel (hydroxypropylcellulose) (HPC) 101 % of control | dose: 400.0 mg/kg/injection, schedule: Q01DX009 (ip), vehicle: Klucel (hydroxypropylcellulose) (HPC) 95 % of control | dose: 400.0 mg/kg/injection, schedule: Q04DX003 (ip), vehicle: Klucel (hydroxypropylcellulose) (HPC) 101 % of control

CCCCCCCCCCNC(=O)C[n+]1cccc(C(N)=O)c1
inactive: dose: 12.5 mg/kg/injection, schedule: Q04DX003 (ip), vehicle: saline 86 % of control | dose: 25.0 mg/kg/injection, schedule: Q04DX003 (ip), vehicle: saline 89 % of control | dose: 50.0 mg/kg/injection, schedule: Q04DX003 (ip), vehicle: saline 102 % of control

Cc1cccc(CC23CC4CC(CC(C4)C2)C3)c1
inactive: dose: 100.0 mg/kg/injection, schedule: Q01DX009 (ip), vehicle: saline with Tween-80 91 % of control | [7] 102 % of control | dose: 200.0 mg/kg/injection, schedule: Q01DX009 (ip), vehicle: saline with Tween-80 90 % of control | [8] 100 % of control | dose: 400.0 mg/kg/injection, schedule: Q01DX009 (ip), vehicle: saline with Tween-80 95 % of control | [9] 98 % of control

CCC[As](=O)(O)CC[As](=O)(O)CCC
inactive: [4] 104 % of control | [5] 112 % of control | [6] 96 % of control

ClCCN1CCC2(CC1)SSC1(CCN(CCCl)CC1)S2
inactive: dose: 10.0 mg/kg/injection, schedule: Q01DX009 (ip), vehicle: saline 107 % of control | dose: 20.0 mg/kg/injection, schedule: Q01DX001 (ip), vehicle: Klucel (hydroxypropylcellulose) (HPC) 108 % of control | dose: 20.0 mg/kg/injection, schedule: Q01DX009 (ip), vehicle: saline 103 % of control | dose: 40.0 mg/kg/injection, schedule: Q01DX001 (ip), vehicle: Klucel (hydroxypropylcellulose) (HPC) 121 % of control

Cc1cc(NC(=O)Nc2ccc(Cl)c(C(F)(F)F)c2)no1
inactive: dose: 50.0 mg/kg/injection, schedule: Q01DX009 (ip), vehicle: carboxymethylcellulose (CMC) 96 % of control and 97 % of control | dose: 100.0 mg/kg/injection, schedule: Q01DX001 (ip), vehicle: carboxymethylcellulose (CMC) 110 % of control and 112 % of control | dose: 100.0 mg/kg/injection, schedule: Q04DX002 (ip), vehicle: carboxymethylcellulose (CMC) 94 % of control and 100 % of control | dose: 100.0 mg/kg/injection, schedule: Q04DX003 (ip), vehicle: carboxymethylcellulose (CMC) 96 % of control and 103 % of control | dose: 200.0 mg/kg/injection, schedule: Q01DX001 (ip), vehicle: carboxymethylcellulose (CMC) 95 % of control and 108 % of control | dose: 200.0 mg/kg/injection, schedule: Q04DX002 (ip), vehicle: carboxymethylcellulose (CMC) 94 % of control and 97 % of control | dose: 200.0 mg/kg/injection, schedule: Q04DX003 (ip), vehicle: carboxymethylcellulose (CMC) 97 % of control and 101 % of control | dose: 400.0 mg/kg/injection, schedule: Q01DX001 (ip), vehicle: carboxymethylcellulose (CMC) 94 % of control and 91 % of control | dose: 400.0 mg/kg/injection, schedule: Q01DX009 (ip), vehicle: carboxymethylcellulose (CMC) 86 % of control | dose: 400.0 mg/kg/injection, schedule: Q04DX002 (ip), vehicle: carboxymethylcellulose (CMC) 89 % of control and 90 % of control | dose: 400.0 mg/kg/injection, schedule: Q04DX003 (ip), vehicle: carboxymethylcellulose (CMC) 92 % of control and 95 % of control
